From ChEMBL document CHEMBL5244230, “Artemisinin-derived hybrids and their anticancer activity” (Eur J Med Chem, 2020)

system: MDA-MB-231; assay: Antiproliferative activity against human MDA-MB-231 cells assessed as reduction in cell viability measured for 72 hrs by MTT assay; type: functional, cell-based; settings: MDA-MB-231, 72 h

Question: For `C[C@H]1[C@@H](NC(=O)COCc2ccc(C(=O)/C=C/c3ccc(OC(F)(F)F)cc3)cc2)O[C@@H]2O[C@@]3(C)CC[C@H]4[C@H](C)CC[C@@H]1[C@@]24OO3`, which IC50 is on record?
Answer: 90 nM

Question: `C[C@H]1[C@@H](NC(=O)COCc2ccc(C(=O)/C=C/c3ccc(Cl)cc3F)cc2)O[C@@H]2O[C@@]3(C)CC[C@H]4[C@H](C)CC[C@@H]1[C@@]24OO3` was tested. Which IC50 did it give?
Answer: 90 nM

Question: With `C[C@H]1[C@H](NC(=O)COCc2ccc(C(=O)/C=C/c3ccc(F)c(F)c3)cc2)O[C@@H]2O[C@@]3(C)CC[C@H]4[C@H](C)CC[C@@H]1[C@@]24OO3` as the compound, how does the IC50 read?
Answer: 100 nM

Question: With `C[C@H]1[C@@H](NC(=O)COCc2ccc(/C=C/C(=O)c3ccccc3)cc2)O[C@@H]2O[C@@]3(C)CC[C@H]4[C@H](C)CC[C@@H]1[C@@]24OO3` as the compound, how does the IC50 read?
Answer: 1700 nM

Question: With `COc1cccc(/C=C/C(=O)c2ccc(COCC(=O)N[C@@H]3O[C@@H]4O[C@@]5(C)CC[C@H]6[C@H](C)CC[C@@H]([C@H]3C)[C@@]46OO5)cc2)c1` as the compound, how does the IC50 read?
Answer: 100 nM

Question: For `C[C@H]1[C@H](NC(=O)COCc2ccc(C(=O)/C=C/c3ccc(Cl)cc3)cc2)O[C@@H]2O[C@@]3(C)CC[C@H]4[C@H](C)CC[C@@H]1[C@@]24OO3`, which IC50 is on record?
Answer: 100 nM

Question: `COc1ccc(OC)c(/C=C/C(=O)c2ccc(COCC(=O)N[C@H]3O[C@@H]4O[C@@]5(C)CC[C@H]6[C@H](C)CC[C@@H]([C@H]3C)[C@@]46OO5)cc2)c1` was tested. Which IC50 did it give?
Answer: 90 nM

Question: How did the IC50 turn out when `COc1ccc(/C=C/C(=O)c2ccc(COCC(=O)N[C@H]3O[C@@H]4O[C@@]5(C)CC[C@H]6[C@H](C)CC[C@@H]([C@H]3C)[C@@]46OO5)cc2)c(OC)c1OC` was run?
Answer: 90 nM

system: A549; assay: Antiproliferative activity against human A549 cells assessed as reduction in cell viability measured for 72 hrs by MTT assay; type: functional, cell-based; settings: A549, 72 h

Question: `C[C@H]1[C@@H](NC(=O)COCc2ccc(C(=O)/C=C/c3ccc(OC(F)(F)F)cc3)cc2)O[C@@H]2O[C@@]3(C)CC[C@H]4[C@H](C)CC[C@@H]1[C@@]24OO3` was tested. Which IC50 did it give?
Answer: 90 nM

Question: For `C[C@H]1[C@@H](NC(=O)COCc2ccc(C(=O)/C=C/c3ccc(Cl)cc3F)cc2)O[C@@H]2O[C@@]3(C)CC[C@H]4[C@H](C)CC[C@@H]1[C@@]24OO3`, which IC50 is on record?
Answer: 90 nM

Question: With `C[C@H]1[C@H](NC(=O)COCc2ccc(C(=O)/C=C/c3ccc(F)c(F)c3)cc2)O[C@@H]2O[C@@]3(C)CC[C@H]4[C@H](C)CC[C@@H]1[C@@]24OO3` as the compound, how does the IC50 read?
Answer: 100 nM

Question: `C[C@H]1[C@@H](NC(=O)COCc2ccc(/C=C/C(=O)c3ccccc3)cc2)O[C@@H]2O[C@@]3(C)CC[C@H]4[C@H](C)CC[C@@H]1[C@@]24OO3` was tested. Which IC50 did it give?
Answer: 1700 nM

Question: How did the IC50 turn out when `COc1cccc(/C=C/C(=O)c2ccc(COCC(=O)N[C@@H]3O[C@@H]4O[C@@]5(C)CC[C@H]6[C@H](C)CC[C@@H]([C@H]3C)[C@@]46OO5)cc2)c1` was run?
Answer: 100 nM

Question: Which IC50 does the source give for `C[C@H]1[C@H](NC(=O)COCc2ccc(C(=O)/C=C/c3ccc(Cl)cc3)cc2)O[C@@H]2O[C@@]3(C)CC[C@H]4[C@H](C)CC[C@@H]1[C@@]24OO3` here?
Answer: 100 nM

Question: With `COc1ccc(OC)c(/C=C/C(=O)c2ccc(COCC(=O)N[C@H]3O[C@@H]4O[C@@]5(C)CC[C@H]6[C@H](C)CC[C@@H]([C@H]3C)[C@@]46OO5)cc2)c1` as the compound, how does the IC50 read?
Answer: 90 nM

Question: `COc1ccc(/C=C/C(=O)c2ccc(COCC(=O)N[C@H]3O[C@@H]4O[C@@]5(C)CC[C@H]6[C@H](C)CC[C@@H]([C@H]3C)[C@@]46OO5)cc2)c(OC)c1OC` was tested. Which IC50 did it give?
Answer: 90 nM

system: NCI-H460; assay: Antiproliferative activity against human NCI-H460 cells assessed as reduction in cell viability measured for 72 hrs by MTT assay; type: functional, cell-based; settings: NCI-H460, 72 h

Question: Which IC50 does the source give for `C[C@H]1[C@@H](NC(=O)COCc2ccc(C(=O)/C=C/c3ccc(OC(F)(F)F)cc3)cc2)O[C@@H]2O[C@@]3(C)CC[C@H]4[C@H](C)CC[C@@H]1[C@@]24OO3` here?
Answer: 90 nM

Question: Which IC50 does the source give for `C[C@H]1[C@@H](NC(=O)COCc2ccc(C(=O)/C=C/c3ccc(Cl)cc3F)cc2)O[C@@H]2O[C@@]3(C)CC[C@H]4[C@H](C)CC[C@@H]1[C@@]24OO3` here?
Answer: 90 nM

Question: How did the IC50 turn out when `C[C@H]1[C@H](NC(=O)COCc2ccc(C(=O)/C=C/c3ccc(F)c(F)c3)cc2)O[C@@H]2O[C@@]3(C)CC[C@H]4[C@H](C)CC[C@@H]1[C@@]24OO3` was run?
Answer: 100 nM

Question: `C[C@H]1[C@@H](NC(=O)COCc2ccc(/C=C/C(=O)c3ccccc3)cc2)O[C@@H]2O[C@@]3(C)CC[C@H]4[C@H](C)CC[C@@H]1[C@@]24OO3` was tested. Which IC50 did it give?
Answer: 1700 nM

Question: How did the IC50 turn out when `COc1cccc(/C=C/C(=O)c2ccc(COCC(=O)N[C@@H]3O[C@@H]4O[C@@]5(C)CC[C@H]6[C@H](C)CC[C@@H]([C@H]3C)[C@@]46OO5)cc2)c1` was run?
Answer: 100 nM

Question: With `C[C@H]1[C@H](NC(=O)COCc2ccc(C(=O)/C=C/c3ccc(Cl)cc3)cc2)O[C@@H]2O[C@@]3(C)CC[C@H]4[C@H](C)CC[C@@H]1[C@@]24OO3` as the compound, how does the IC50 read?
Answer: 100 nM

Question: How did the IC50 turn out when `COc1ccc(OC)c(/C=C/C(=O)c2ccc(COCC(=O)N[C@H]3O[C@@H]4O[C@@]5(C)CC[C@H]6[C@H](C)CC[C@@H]([C@H]3C)[C@@]46OO5)cc2)c1` was run?
Answer: 90 nM

Question: With `COc1ccc(/C=C/C(=O)c2ccc(COCC(=O)N[C@H]3O[C@@H]4O[C@@]5(C)CC[C@H]6[C@H](C)CC[C@@H]([C@H]3C)[C@@]46OO5)cc2)c(OC)c1OC` as the compound, how does the IC50 read?
Answer: 90 nM

system: HeLa; assay: Antiproliferative activity against human HeLa cells assessed as reduction in cell viability measured for 72 hrs by MTT assay; type: functional, cell-based; settings: not given

Question: For `C[C@H]1[C@@H](NC(=O)COCc2ccc(C(=O)/C=C/c3ccc(OC(F)(F)F)cc3)cc2)O[C@@H]2O[C@@]3(C)CC[C@H]4[C@H](C)CC[C@@H]1[C@@]24OO3`, which IC50 is on record?
Answer: 90 nM

Question: How did the IC50 turn out when `C[C@H]1[C@@H](NC(=O)COCc2ccc(C(=O)/C=C/c3ccc(Cl)cc3F)cc2)O[C@@H]2O[C@@]3(C)CC[C@H]4[C@H](C)CC[C@@H]1[C@@]24OO3` was run?
Answer: 90 nM

Question: Which IC50 does the source give for `C[C@H]1[C@H](NC(=O)COCc2ccc(C(=O)/C=C/c3ccc(F)c(F)c3)cc2)O[C@@H]2O[C@@]3(C)CC[C@H]4[C@H](C)CC[C@@H]1[C@@]24OO3` here?
Answer: 100 nM

Question: How did the IC50 turn out when `C[C@H]1[C@@H](NC(=O)COCc2ccc(/C=C/C(=O)c3ccccc3)cc2)O[C@@H]2O[C@@]3(C)CC[C@H]4[C@H](C)CC[C@@H]1[C@@]24OO3` was run?
Answer: 1700 nM

Question: `COc1cccc(/C=C/C(=O)c2ccc(COCC(=O)N[C@@H]3O[C@@H]4O[C@@]5(C)CC[C@H]6[C@H](C)CC[C@@H]([C@H]3C)[C@@]46OO5)cc2)c1` was tested. Which IC50 did it give?
Answer: 100 nM

Question: `C[C@H]1[C@H](NC(=O)COCc2ccc(C(=O)/C=C/c3ccc(Cl)cc3)cc2)O[C@@H]2O[C@@]3(C)CC[C@H]4[C@H](C)CC[C@@H]1[C@@]24OO3` was tested. Which IC50 did it give?
Answer: 100 nM

Question: How did the IC50 turn out when `COc1ccc(OC)c(/C=C/C(=O)c2ccc(COCC(=O)N[C@H]3O[C@@H]4O[C@@]5(C)CC[C@H]6[C@H](C)CC[C@@H]([C@H]3C)[C@@]46OO5)cc2)c1` was run?
Answer: 90 nM

Question: `COc1ccc(/C=C/C(=O)c2ccc(COCC(=O)N[C@H]3O[C@@H]4O[C@@]5(C)CC[C@H]6[C@H](C)CC[C@@H]([C@H]3C)[C@@]46OO5)cc2)c(OC)c1OC` was tested. Which IC50 did it give?
Answer: 90 nM

system: HT-29; assay: Antiproliferative activity against human HT-29 cells assessed as reduction in cell viability measured for 72 hrs by MTT assay; type: functional, cell-based; settings: HT-29, 72 h

Question: With `C[C@H]1[C@@H](NC(=O)COCc2ccc(C(=O)/C=C/c3ccc(OC(F)(F)F)cc3)cc2)O[C@@H]2O[C@@]3(C)CC[C@H]4[C@H](C)CC[C@@H]1[C@@]24OO3` as the compound, how does the IC50 read?
Answer: 90 nM

Question: With `C[C@H]1[C@@H](NC(=O)COCc2ccc(C(=O)/C=C/c3ccc(Cl)cc3F)cc2)O[C@@H]2O[C@@]3(C)CC[C@H]4[C@H](C)CC[C@@H]1[C@@]24OO3` as the compound, how does the IC50 read?
Answer: 90 nM

Question: How did the IC50 turn out when `C[C@H]1[C@H](NC(=O)COCc2ccc(C(=O)/C=C/c3ccc(F)c(F)c3)cc2)O[C@@H]2O[C@@]3(C)CC[C@H]4[C@H](C)CC[C@@H]1[C@@]24OO3` was run?
Answer: 100 nM

Question: `C[C@H]1[C@@H](NC(=O)COCc2ccc(/C=C/C(=O)c3ccccc3)cc2)O[C@@H]2O[C@@]3(C)CC[C@H]4[C@H](C)CC[C@@H]1[C@@]24OO3` was tested. Which IC50 did it give?
Answer: 1700 nM

Question: How did the IC50 turn out when `COc1cccc(/C=C/C(=O)c2ccc(COCC(=O)N[C@@H]3O[C@@H]4O[C@@]5(C)CC[C@H]6[C@H](C)CC[C@@H]([C@H]3C)[C@@]46OO5)cc2)c1` was run?
Answer: 100 nM

Question: Which IC50 does the source give for `C[C@H]1[C@H](NC(=O)COCc2ccc(C(=O)/C=C/c3ccc(Cl)cc3)cc2)O[C@@H]2O[C@@]3(C)CC[C@H]4[C@H](C)CC[C@@H]1[C@@]24OO3` here?
Answer: 100 nM

Question: With `COc1ccc(OC)c(/C=C/C(=O)c2ccc(COCC(=O)N[C@H]3O[C@@H]4O[C@@]5(C)CC[C@H]6[C@H](C)CC[C@@H]([C@H]3C)[C@@]46OO5)cc2)c1` as the compound, how does the IC50 read?
Answer: 90 nM

Question: For `COc1ccc(/C=C/C(=O)c2ccc(COCC(=O)N[C@H]3O[C@@H]4O[C@@]5(C)CC[C@H]6[C@H](C)CC[C@@H]([C@H]3C)[C@@]46OO5)cc2)c(OC)c1OC`, which IC50 is on record?
Answer: 90 nM
